These results are taken from ChEMBL document CHEMBL1909046, “DrugMatrix in vitro pharmacology data”.

Chain of Cytochrome P450 2C19 (P33261 whole entry): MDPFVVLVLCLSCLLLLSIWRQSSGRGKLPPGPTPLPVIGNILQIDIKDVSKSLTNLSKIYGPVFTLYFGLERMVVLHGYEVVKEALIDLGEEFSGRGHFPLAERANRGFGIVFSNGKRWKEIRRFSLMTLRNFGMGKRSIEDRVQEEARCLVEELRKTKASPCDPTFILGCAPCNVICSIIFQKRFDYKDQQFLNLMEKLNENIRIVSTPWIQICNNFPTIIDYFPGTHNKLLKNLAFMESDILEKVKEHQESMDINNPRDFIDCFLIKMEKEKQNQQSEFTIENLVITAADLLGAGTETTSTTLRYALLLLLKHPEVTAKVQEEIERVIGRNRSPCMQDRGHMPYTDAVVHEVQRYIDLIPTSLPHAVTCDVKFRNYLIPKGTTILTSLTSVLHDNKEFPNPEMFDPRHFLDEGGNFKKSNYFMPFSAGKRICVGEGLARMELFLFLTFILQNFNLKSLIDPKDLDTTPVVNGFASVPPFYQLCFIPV

One data set addresses T1, D(4) dopamine receptor (Homo sapiens, UniProt P21917).
T1 sequence (P21917 whole entry): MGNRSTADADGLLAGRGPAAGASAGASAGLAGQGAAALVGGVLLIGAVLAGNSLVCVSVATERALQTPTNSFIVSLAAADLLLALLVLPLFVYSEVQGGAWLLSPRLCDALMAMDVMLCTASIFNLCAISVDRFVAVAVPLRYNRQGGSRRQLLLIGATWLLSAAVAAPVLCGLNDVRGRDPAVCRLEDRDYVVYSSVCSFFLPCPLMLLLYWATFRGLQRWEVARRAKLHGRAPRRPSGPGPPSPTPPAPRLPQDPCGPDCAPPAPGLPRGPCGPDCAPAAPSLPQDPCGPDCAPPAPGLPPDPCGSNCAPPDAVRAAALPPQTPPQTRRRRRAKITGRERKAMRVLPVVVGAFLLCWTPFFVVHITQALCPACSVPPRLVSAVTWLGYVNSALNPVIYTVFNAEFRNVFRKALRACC
In words: DRUGMATRIX: Dopamine D4.2 radioligand binding (ligand: [3H] Spiperone). The data set is classed as cell membranes, CHO-K1, Membrane. The conditions noted are these: cho-k1; Not Active = under 50% inhibition at 10 µM.
Regarding `C[n+]1ccccc1/C=N/O.[Cl-]` [PRALIDOXIME CHLORIDE], the IC50 result is “Not Active”.

Regarding `COc1cc2nc(N3CCN(C(=O)c4ccco4)CC3)nc(N)c2cc1OC` [PRAZOSIN], the IC50 entry was “Not Active”.

In the case of `C[C@]12C=CC(=O)C=C1CC[C@@H]1[C@@H]2[C@@H](O)C[C@@]2(C)[C@H]1CC[C@]2(O)C(=O)CO` [PREDNISOLONE], the IC50 entry is given as “Not Active”.

For `CC(=O)[C@H]1[C@H](C#N)C[C@H]2[C@@H]3CC=C4C[C@@H](O)CC[C@]4(C)[C@H]3CC[C@@]21C` [PREGNENOLONE CARBONITRILE], the IC50 entry was “Not Active”.

Another data set has as its target Carbonic anhydrase 2 (Homo sapiens, UniProt P00918). In words: DRUGMATRIX: Carbonic Anhydrase II enzyme inhibition (substrate: 4-Nitrophenyl acetate (4-NPA)). The data set is classed as tissue-based. The following applies: erythrocyte; Not Active = under 50% inhibition at 10 µM.
Consider `C[n+]1ccccc1/C=N/O.[Cl-]` [PRALIDOXIME CHLORIDE], for which the IC50 result is “Not Active”.

With `COc1cc2nc(N3CCN(C(=O)c4ccco4)CC3)nc(N)c2cc1OC` [PRAZOSIN], the IC50 entry is reported as “Not Active”.

On to `C[C@]12C=CC(=O)C=C1CC[C@@H]1[C@@H]2[C@@H](O)C[C@@]2(C)[C@H]1CC[C@]2(O)C(=O)CO` [PREDNISOLONE], for which the IC50 result was “Not Active”.

For the molecule `CC(=O)[C@H]1[C@H](C#N)C[C@H]2[C@@H]3CC=C4C[C@@H](O)CC[C@]4(C)[C@H]3CC[C@@]21C` [PREGNENOLONE CARBONITRILE], the IC50 result is “Not Active”.

For a further data set, the target named is Mitogen-activated protein kinase 1 (Homo sapiens, UniProt P28482). In words: DRUGMATRIX: Protein Serine/Threonine Kinase, ERK2 enzyme inhibition (substrate: Myelin Basic Protein). More on the design: species or system Escherichia coli. The conditions noted are these: Not Active = under 50% inhibition at 10 µM.
Chain of Mitogen-activated protein kinase 1 (P28482 whole entry): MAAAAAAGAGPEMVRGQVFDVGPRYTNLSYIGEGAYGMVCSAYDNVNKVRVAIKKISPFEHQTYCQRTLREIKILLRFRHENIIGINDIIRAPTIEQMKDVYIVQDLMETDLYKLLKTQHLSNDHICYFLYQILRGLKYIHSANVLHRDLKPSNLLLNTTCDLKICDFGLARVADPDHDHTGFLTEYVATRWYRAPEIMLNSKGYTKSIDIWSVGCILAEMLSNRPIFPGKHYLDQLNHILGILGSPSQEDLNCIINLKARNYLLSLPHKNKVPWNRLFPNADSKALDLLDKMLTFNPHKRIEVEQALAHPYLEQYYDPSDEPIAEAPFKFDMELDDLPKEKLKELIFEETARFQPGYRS
Regarding `C[n+]1ccccc1/C=N/O.[Cl-]` [PRALIDOXIME CHLORIDE], the IC50 entry is given as “Not Active”.

As for `COc1cc2nc(N3CCN(C(=O)c4ccco4)CC3)nc(N)c2cc1OC` [PRAZOSIN], the IC50 entry was “Not Active”.

Consider `C[C@]12C=CC(=O)C=C1CC[C@@H]1[C@@H]2[C@@H](O)C[C@@]2(C)[C@H]1CC[C@]2(O)C(=O)CO` [PREDNISOLONE], for which the IC50 entry is listed as “Not Active”.

On to `CC(=O)[C@H]1[C@H](C#N)C[C@H]2[C@@H]3CC=C4C[C@@H](O)CC[C@]4(C)[C@H]3CC[C@@]21C` [PREGNENOLONE CARBONITRILE], for which the IC50 entry is “Not Active”.

Test system in another data set: not listed separately
In words: DRUGMATRIX: Glutamate, NMDA, Phencyclidine radioligand binding (ligand: [3H] TCP). The following applies: Not Active = under 50% inhibition at 10 µM. The data set is classed as cell membranes, Rattus norvegicus, Wistar, Cerebral cortex, Membrane.
Take `C[n+]1ccccc1/C=N/O.[Cl-]` [PRALIDOXIME CHLORIDE]: the IC50 entry was “Not Active” and the Ki result is listed as “Not Active”.

As for `COc1cc2nc(N3CCN(C(=O)c4ccco4)CC3)nc(N)c2cc1OC` [PRAZOSIN], the IC50 entry is recorded as “Not Active” and the Ki entry was “Not Active”.

Take `C[C@]12C=CC(=O)C=C1CC[C@@H]1[C@@H]2[C@@H](O)C[C@@]2(C)[C@H]1CC[C@]2(O)C(=O)CO` [PREDNISOLONE]: the IC50 entry is listed as “Not Active” and the Ki entry is “Not Active”.

On to `CC(=O)[C@H]1[C@H](C#N)C[C@H]2[C@@H]3CC=C4C[C@@H](O)CC[C@]4(C)[C@H]3CC[C@@]21C` [PREGNENOLONE CARBONITRILE], for which the IC50 entry is listed as “Not Active” and the Ki result is given as “Not Active”.

A further data set deals with Tyrosine-protein kinase Lck (Homo sapiens, UniProt P06239). In words: DRUGMATRIX: Protein Tyrosine Kinase, LCK enzyme inhibition (substrate: Poly(Glu:Tyr)). The data set is classed as cell-based, Insect cells. The following applies: insect cells; Not Active = under 50% inhibition at 10 µM.
Chain of Tyrosine-protein kinase Lck (P06239 whole entry): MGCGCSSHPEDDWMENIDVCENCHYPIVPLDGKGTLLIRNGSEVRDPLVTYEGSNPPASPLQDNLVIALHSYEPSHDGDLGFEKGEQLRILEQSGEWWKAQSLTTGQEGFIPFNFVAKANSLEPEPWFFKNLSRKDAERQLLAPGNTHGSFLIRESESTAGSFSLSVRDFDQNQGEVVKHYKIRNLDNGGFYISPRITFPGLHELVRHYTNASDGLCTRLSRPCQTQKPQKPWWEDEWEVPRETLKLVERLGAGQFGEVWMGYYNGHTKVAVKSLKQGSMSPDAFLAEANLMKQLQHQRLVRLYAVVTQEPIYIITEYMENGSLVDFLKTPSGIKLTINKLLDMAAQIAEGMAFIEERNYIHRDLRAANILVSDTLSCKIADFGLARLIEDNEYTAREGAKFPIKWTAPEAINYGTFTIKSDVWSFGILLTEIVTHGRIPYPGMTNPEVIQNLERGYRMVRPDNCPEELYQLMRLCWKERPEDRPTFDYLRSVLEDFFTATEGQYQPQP
Turning to `C[n+]1ccccc1/C=N/O.[Cl-]` [PRALIDOXIME CHLORIDE], the IC50 result is listed as “Not Active”.

As for `COc1cc2nc(N3CCN(C(=O)c4ccco4)CC3)nc(N)c2cc1OC` [PRAZOSIN], the IC50 result is “Not Active”.

As to `C[C@]12C=CC(=O)C=C1CC[C@@H]1[C@@H]2[C@@H](O)C[C@@]2(C)[C@H]1CC[C@]2(O)C(=O)CO` [PREDNISOLONE], the IC50 entry is given as “Not Active”.

On to `CC(=O)[C@H]1[C@H](C#N)C[C@H]2[C@@H]3CC=C4C[C@@H](O)CC[C@]4(C)[C@H]3CC[C@@]21C` [PREGNENOLONE CARBONITRILE], for which the IC50 entry is “Not Active”.

The next data set concerns the target Cytochrome P450 2C19 (Homo sapiens, UniProt P33261). The following applies: bti-tn-5b1-4. Note: in other assays of this panel Not Active means under 50% inhibition at 10 µM.
On to `C[n+]1ccccc1/C=N/O.[Cl-]` [PRALIDOXIME CHLORIDE], for which the IC50 result is “Not Active” and the Ki result is “Not Active”.

On to `COc1cc2nc(N3CCN(C(=O)c4ccco4)CC3)nc(N)c2cc1OC` [PRAZOSIN], for which the IC50 entry is “Not Active” and the Ki entry is “Not Active”.

On to `C[C@]12C=CC(=O)C=C1CC[C@@H]1[C@@H]2[C@@H](O)C[C@@]2(C)[C@H]1CC[C@]2(O)C(=O)CO` [PREDNISOLONE], for which the IC50 result was “Not Active” and the Ki result was “Not Active”.

With `CC(=O)[C@H]1[C@H](C#N)C[C@H]2[C@@H]3CC=C4C[C@@H](O)CC[C@]4(C)[C@H]3CC[C@@]21C` [PREGNENOLONE CARBONITRILE], the IC50 result is “Not Active” and the Ki entry is recorded as “Not Active”.

The target of a further data set is T2, Cytochrome P450 1A2 (Homo sapiens, UniProt P05177). Note: in other assays of this panel Not Active means under 50% inhibition at 10 µM.
T2 sequence (P05177 whole entry): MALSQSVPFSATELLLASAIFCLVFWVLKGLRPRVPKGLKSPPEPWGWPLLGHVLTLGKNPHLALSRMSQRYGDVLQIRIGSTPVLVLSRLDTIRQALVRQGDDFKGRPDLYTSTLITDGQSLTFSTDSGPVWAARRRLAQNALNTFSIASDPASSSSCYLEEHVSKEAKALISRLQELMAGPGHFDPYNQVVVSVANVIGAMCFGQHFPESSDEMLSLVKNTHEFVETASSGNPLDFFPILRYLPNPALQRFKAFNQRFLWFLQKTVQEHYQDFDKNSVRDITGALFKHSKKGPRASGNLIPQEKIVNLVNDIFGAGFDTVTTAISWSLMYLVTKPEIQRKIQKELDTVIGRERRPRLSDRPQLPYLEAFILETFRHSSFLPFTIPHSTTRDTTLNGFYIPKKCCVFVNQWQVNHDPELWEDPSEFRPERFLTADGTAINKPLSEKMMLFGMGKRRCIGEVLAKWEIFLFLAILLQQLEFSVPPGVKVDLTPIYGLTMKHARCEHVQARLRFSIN
The conditions noted are these: bti-tn-5b1-4.
In the case of `C[n+]1ccccc1/C=N/O.[Cl-]` [PRALIDOXIME CHLORIDE], the IC50 entry is “Not Active” and the Ki entry was “Not Active”.

In the case of `COc1cc2nc(N3CCN(C(=O)c4ccco4)CC3)nc(N)c2cc1OC` [PRAZOSIN], the IC50 entry is listed as “Not Active” and the Ki result was “Not Active”.

For `C[C@]12C=CC(=O)C=C1CC[C@@H]1[C@@H]2[C@@H](O)C[C@@]2(C)[C@H]1CC[C@]2(O)C(=O)CO` [PREDNISOLONE], the IC50 entry was “Not Active” and the Ki result is “Not Active”.

With `CC(=O)[C@H]1[C@H](C#N)C[C@H]2[C@@H]3CC=C4C[C@@H](O)CC[C@]4(C)[C@H]3CC[C@@]21C` [PREGNENOLONE CARBONITRILE], the IC50 entry is reported as “Not Active” and the Ki entry was “Not Active”.

The target of a further data set is T3, Nitric oxide synthase, inducible (Mus musculus, UniProt P29477).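 Note: inhibition of iNOS enzyme activity measured with L-arginine as substrate; in other assays of this panel Not Active means under 50% inhibition at 10 µM.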
T3 sequence (P29477 whole entry): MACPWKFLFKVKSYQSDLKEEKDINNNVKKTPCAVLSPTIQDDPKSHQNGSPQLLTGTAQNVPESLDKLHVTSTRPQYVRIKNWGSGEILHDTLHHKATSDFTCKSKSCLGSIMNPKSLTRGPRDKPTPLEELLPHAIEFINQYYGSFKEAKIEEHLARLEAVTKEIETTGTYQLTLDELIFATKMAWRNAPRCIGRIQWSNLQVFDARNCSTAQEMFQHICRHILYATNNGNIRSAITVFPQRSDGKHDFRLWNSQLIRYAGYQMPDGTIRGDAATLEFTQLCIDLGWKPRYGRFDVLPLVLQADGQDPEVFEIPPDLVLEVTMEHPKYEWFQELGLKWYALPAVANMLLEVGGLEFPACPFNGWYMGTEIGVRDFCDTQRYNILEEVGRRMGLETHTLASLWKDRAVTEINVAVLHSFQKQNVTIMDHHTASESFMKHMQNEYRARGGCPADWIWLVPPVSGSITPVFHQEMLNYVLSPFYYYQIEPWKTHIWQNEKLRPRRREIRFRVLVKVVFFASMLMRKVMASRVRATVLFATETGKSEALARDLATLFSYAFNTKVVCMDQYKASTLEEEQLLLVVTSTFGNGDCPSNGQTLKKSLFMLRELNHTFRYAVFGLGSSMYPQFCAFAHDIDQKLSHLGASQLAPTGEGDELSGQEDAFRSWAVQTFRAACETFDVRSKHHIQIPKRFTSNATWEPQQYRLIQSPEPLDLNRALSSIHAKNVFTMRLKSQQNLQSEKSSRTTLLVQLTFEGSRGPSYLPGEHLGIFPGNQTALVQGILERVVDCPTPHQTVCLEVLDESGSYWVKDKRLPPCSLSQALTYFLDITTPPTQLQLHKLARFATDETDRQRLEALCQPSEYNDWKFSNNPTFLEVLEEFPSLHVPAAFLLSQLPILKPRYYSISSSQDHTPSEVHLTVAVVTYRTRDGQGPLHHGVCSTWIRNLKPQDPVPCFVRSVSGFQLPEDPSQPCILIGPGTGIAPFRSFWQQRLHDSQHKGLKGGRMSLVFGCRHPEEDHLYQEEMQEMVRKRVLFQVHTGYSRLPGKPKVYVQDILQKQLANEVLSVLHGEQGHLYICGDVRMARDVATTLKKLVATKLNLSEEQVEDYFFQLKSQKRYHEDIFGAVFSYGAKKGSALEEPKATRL
Further details: species or system Escherichia coli.
Conditions: not given
As to `C[n+]1ccccc1/C=N/O.[Cl-]` [PRALIDOXIME CHLORIDE], the IC50 result is on record as “Not Active”.

As to `COc1cc2nc(N3CCN(C(=O)c4ccco4)CC3)nc(N)c2cc1OC` [PRAZOSIN], the IC50 result was “Not Active”.

As for `C[C@]12C=CC(=O)C=C1CC[C@@H]1[C@@H]2[C@@H](O)C[C@@]2(C)[C@H]1CC[C@]2(O)C(=O)CO` [PREDNISOLONE], the IC50 result is recorded as “Not Active”.

Turning to `CC(=O)[C@H]1[C@H](C#N)C[C@H]2[C@@H]3CC=C4C[C@@H](O)CC[C@]4(C)[C@H]3CC[C@@]21C` [PREGNENOLONE CARBONITRILE], the IC50 entry is reported as “Not Active”.
